Data reported in article PMC9918900, “New Succinimide–Thiazolidinedione Hybrids as Multitarget Antidiabetic Agents: Design, Synthesis, Bioevaluation, and Molecular Modelling Studies” (Molecules, 2023).
Like-named read-outs stand apart in the source and are kept apart here.

How the values were obtained:
PTP1B = molecular target: T1, PTP1B (Homo sapiens, UniProt P18031); assay: PTP1B assay (pNPP substrate); format: biochemical
T1 sequence (P18031 1-435): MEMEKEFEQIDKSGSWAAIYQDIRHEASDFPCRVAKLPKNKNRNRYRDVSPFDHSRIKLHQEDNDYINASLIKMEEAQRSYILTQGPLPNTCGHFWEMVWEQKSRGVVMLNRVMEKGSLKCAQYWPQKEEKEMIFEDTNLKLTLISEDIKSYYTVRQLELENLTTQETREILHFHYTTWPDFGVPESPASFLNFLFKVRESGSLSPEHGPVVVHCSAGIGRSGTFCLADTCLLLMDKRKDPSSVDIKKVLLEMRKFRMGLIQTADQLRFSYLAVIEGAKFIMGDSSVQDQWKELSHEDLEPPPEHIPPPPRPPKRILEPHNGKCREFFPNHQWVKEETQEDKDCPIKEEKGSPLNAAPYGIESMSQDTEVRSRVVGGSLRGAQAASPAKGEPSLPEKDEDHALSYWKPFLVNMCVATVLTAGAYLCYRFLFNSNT
Procedure: The aforementioned newly synthesize succinimides and thiazolidinedione hybrids were tested against the PTP1B enzyme to determine their ability to inhibit the negative regulation of insulin as well as leptin signaling. The PTP1B test was performed with a small modification to the method described in the publications. The enzyme efficiency was evaluated using […] (pNPP) as a substrate. For the buffer solution, 0.5 millimolar (mM) of ethylene diamine tetraacetic acid (EDTA), 1 mM of mercaptoethanol, 0.55 mM of dithiothreitol (DTT), and 12.49 mM of TRIS hydrochloride (ph = 7.4) were used. The experiment was carried out by mixing 10.0 μL of the test compound solutions with 20.0 μL of the enzyme (1 μg/mL), subsequently injecting 40.0 μL of 4.0 mM 4-nitrophenyl dihydrogen phosphate in 130.5 μL of the prescribed buffer in a microplate well at 37 °C for 10 min. pNP was formed during the enzymatic process, which was monitored for 30 min. The IC50 values were derived using a non-linear regression analysis of the fraction of the product generated vs. the log of the inhibitory concentration.

human DPP-4 enzyme = molecular target: T2, human DPP-4 enzyme (Homo sapiens, UniProt P27487); assay: DPP-4 activity bioassay; format: biochemical; conditions: for inhibition at 31.25 µM / inhibition at 62.5 µM / inhibition at 125 µM / inhibition at 250 µM: read-out: DPP4 (inhibition) (converted); for inhibition at 500 µM: read-out: DPP4 (inhibition); for IC50: read-out: IC50 DPP4
T2 construct: purchased
T2 sequence (P27487 whole entry): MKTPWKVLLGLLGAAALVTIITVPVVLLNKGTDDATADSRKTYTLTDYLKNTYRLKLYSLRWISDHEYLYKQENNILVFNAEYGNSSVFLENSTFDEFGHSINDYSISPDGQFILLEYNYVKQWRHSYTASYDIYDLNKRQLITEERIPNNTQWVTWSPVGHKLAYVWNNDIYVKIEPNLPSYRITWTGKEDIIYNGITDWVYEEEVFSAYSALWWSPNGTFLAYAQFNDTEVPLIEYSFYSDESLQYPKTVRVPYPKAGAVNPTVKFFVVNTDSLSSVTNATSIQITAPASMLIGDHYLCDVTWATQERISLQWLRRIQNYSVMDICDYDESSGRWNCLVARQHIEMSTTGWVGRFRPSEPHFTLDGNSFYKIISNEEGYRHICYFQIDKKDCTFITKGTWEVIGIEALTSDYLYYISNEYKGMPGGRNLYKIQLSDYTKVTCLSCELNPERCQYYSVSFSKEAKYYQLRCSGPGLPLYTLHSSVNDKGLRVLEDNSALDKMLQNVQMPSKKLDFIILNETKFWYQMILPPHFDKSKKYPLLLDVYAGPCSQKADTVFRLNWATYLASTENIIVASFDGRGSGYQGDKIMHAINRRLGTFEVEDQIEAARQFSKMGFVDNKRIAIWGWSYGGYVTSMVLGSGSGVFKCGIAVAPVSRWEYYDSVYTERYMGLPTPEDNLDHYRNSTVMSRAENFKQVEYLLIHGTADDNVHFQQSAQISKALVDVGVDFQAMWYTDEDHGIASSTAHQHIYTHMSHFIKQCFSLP
Procedure: All succinimides and thiazolidinedione hybrids were tested for DPP-4 inhibitory effects on a human DPP-4 enzyme using the methodology published before. The DPP-4 kit was used to measure the inhibition. L-thiazolidine (P32/98) was included as a reference. The hybrids and DPP-4 enzyme were both adulterated 1/50 in the assay buffer (PH = 7.4, 25 mM Tris). Following that, a microplate well was filled with 5 μL of assay buffer, 3 μL of enzyme solution, and 2 μL of adequately diluted test chemical solutions. After a 12-min incubation period at 37.5 °C, a diluted substrate solution of 25 μL was added into the solution. A multi-mode reader was used to assess the fluorescence. […] PRISM5 was used to calculate the IC50 values and compare the inhibition ratio to the control without the inhibitor.

α-amylase = molecular target: T3, α-amylase (Homo sapiens, UniProt P04746); assay: in vitro α-amylase inhibitory activity; format: biochemical
T3 sequence (P04746 16-511): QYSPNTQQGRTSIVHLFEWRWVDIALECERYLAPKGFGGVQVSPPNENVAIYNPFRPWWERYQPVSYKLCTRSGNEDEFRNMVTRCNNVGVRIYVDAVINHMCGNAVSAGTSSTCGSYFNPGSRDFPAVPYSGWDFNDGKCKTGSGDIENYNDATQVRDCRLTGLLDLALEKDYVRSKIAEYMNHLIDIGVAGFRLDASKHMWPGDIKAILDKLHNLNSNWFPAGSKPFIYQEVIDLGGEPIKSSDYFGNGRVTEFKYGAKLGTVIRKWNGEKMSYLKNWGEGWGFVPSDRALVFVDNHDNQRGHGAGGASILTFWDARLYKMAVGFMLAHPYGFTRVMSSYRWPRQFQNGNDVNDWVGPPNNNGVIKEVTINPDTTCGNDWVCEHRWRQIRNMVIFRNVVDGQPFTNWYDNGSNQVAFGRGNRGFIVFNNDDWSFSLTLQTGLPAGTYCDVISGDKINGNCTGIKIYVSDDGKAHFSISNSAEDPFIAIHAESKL
Procedure: The test samples were added in alpha-amylase solution. The enzyme solution was prepared with enzyme and buffer solution. The mixture of the samples and enzyme was then incubated. Then, starch and dinitrosalicylic acid solution was added. The same was performed for both test compounds and the standard drug. […] The percent alpha-amylase inhibition activity and its IC50 values were calculated and confirmed as per the previous procedure.

α-glucosidase = assay: in vitro α-glucosidase inhibitory activity; format: biochemical, Homo sapiens
Procedure: The inhibitory analyses for α-glucosidase were carried out in accordance with the protocols reported in the literature; the inhibitory activities of the synthesized hybrids were calculated utilizing screening assay tools.

[1] = 31.25 µM, read-out: % α-Amylase Inhibition (converted)
[2] = 62.5 µM, read-out: % α-Amylase Inhibition (converted)
[3] = 125 µM, read-out: % α-Amylase Inhibition (converted)
[4] = 250 µM, read-out: % α-Amylase Inhibition (converted)
[5] = 500 µM, read-out: % α-Amylase Inhibition
[6] = read-out: % α-Amylase Inhibition

IC50 (PTP1B) | inhibition at 31.25 µM (PTP1B) | inhibition at 62.5 µM (PTP1B) | inhibition at 125 µM (PTP1B) | inhibition at 250 µM (PTP1B) | inhibition at 500 µM (PTP1B) | inhibition at 31.25 µM (human DPP-4 enzyme) | inhibition at 62.5 µM (human DPP-4 enzyme) | inhibition at 125 µM (human DPP-4 enzyme) | inhibition at 250 µM (human DPP-4 enzyme) | inhibition at 500 µM (human DPP-4 enzyme) | IC50 (human DPP-4 enzyme) | IC50 (α-amylase) | inhibition at 31.25 µM (α-amylase; [1]) | inhibition at 62.5 µM (α-amylase; [2]) | inhibition at 125 µM (α-amylase; [3]) | % α-Glucosidase Inhibition (α-glucosidase; 31.25 µM) | % α-Glucosidase Inhibition (α-glucosidase; 62.5 µM) | % α-Glucosidase Inhibition (α-glucosidase; 125 µM) | % α-Glucosidase Inhibition (α-glucosidase; 500 µM) | Structure (SMILES) | further results
12 µM | 62.9% | 69.2% | 75.1% | 82.6% | 88.61 ± 0.43% | 67.5% | 72.5% | 77.2% | 82.5% | 87.45 ± 0.59% | 5.38 µM | 21.9 µM | 54.6% | 57.5% | 72.8% | 54.56 ± 1.73% | 65.44 ± 0.58% | 72.93 ± 0.67% | 79.49 ± 0.6% | CC(C)(/C=C1\SC(=O)N(C(=O)CN2CCOCC2)C1=O)[C@@H]1CC(=O)NC1=O [10a] | inhibition at 250 µM (α-amylase; [4]): 77.6%; inhibition at 500 µM (α-amylase; [5]): 82.61 ± 0.77%; IC50 (α-glucosidase): 16.5 µM; % α-Glucosidase Inhibition (α-glucosidase; 250 µM): 75.58 ± 0.63%
16.8 µM | 57.2% | 65.8% | 72.8% | 77.1% | 85.3 ± 2.87% | 54.3% | 62.7% | 69.4% | 75.8% | 81.3 ± 1.42% | 20.5 µM | 21.2 µM | 48.5% | 65.5% | 70.5% | 51.72 ± 0.66% | 57.68 ± 0.49% | 70.60 ± 0.46% | 79.48 ± 0.74% | CN1C(=O)C[C@@H](C(C)(C)/C=C2\SC(=O)N(C(=O)CN3CCOCC3)C2=O)C1=O [10b] | inhibition at 250 µM (α-amylase; [4]): 74.7%; inhibition at 500 µM (α-amylase; [5]): 79.37 ± 0.69%; IC50 (α-glucosidase): 27.4 µM; % α-Glucosidase Inhibition (α-glucosidase; 250 µM): 75.62 ± 0.40%
19 µM | 53.5% | 63.4% | 69.3% | 73.4% | 79.4 ± 1.04% | 57.4% | 62.6% | 67.4% | 72.6% | 77.4 ± 1.51% | 12.9 µM | 28.3 µM | 62.4% | 67.6% | 74.3% | 62.72 ± 1.01% | 65.08 ± 0.47% | 71.42 ± 0.43% | 81.53 ± 0.71% | CC(C)(/C=C1\SC(=O)N(C(=O)CN2CCOCC2)C1=O)[C@@H]1CC(=O)N(c2ccccc2)C1=O [10c] | inhibition at 250 µM (α-amylase; [4]): 81.7%; inhibition at 500 µM (α-amylase; [5]): 88.6 ± 1.12%; IC50 (α-glucosidase): 25.6 µM; % α-Glucosidase Inhibition (α-glucosidase; 250 µM): 76.58 ± 1.12%
19.5 µM | 56.4% | 63.5% | 67.2% | 75.8% | 83.51 ± 0.54% | 61.3% | 67.3% | 74.5% | 82.5% | 88.5 ± 2.06% | 14.7 µM | 9.66 µM | 73.4% | 78.2% | 82.5% | 52.58 ± 0.63% | 74.94 ± 1.13% | 79.84 ± 0.30% | 86.44 ± 0.58% | COc1ccc(N2C(=O)C[C@@H](C(C)(C)/C=C3\SC(=O)N(C(=O)CN4CCOCC4)C3=O)C2=O)cc1 [10e] | inhibition at 250 µM (α-amylase; [4]): 88.6%; inhibition at 500 µM (α-amylase; [5]): 92.7 ± 1.3%; IC50 (α-glucosidase): 13.2 µM; % α-Glucosidase Inhibition (α-glucosidase; 250 µM): 81.08 ± 0.47%

Continued, molecule first:

Structure (SMILES) | IC50 (PTP1B) | inhibition at 31.25 µM (PTP1B) | inhibition at 62.5 µM (PTP1B) | inhibition at 125 µM (PTP1B) | inhibition at 250 µM (PTP1B) | inhibition at 500 µM (PTP1B) | inhibition at 31.25 µM (human DPP-4 enzyme) | inhibition at 62.5 µM (human DPP-4 enzyme) | inhibition at 125 µM (human DPP-4 enzyme) | inhibition at 250 µM (human DPP-4 enzyme) | inhibition at 500 µM (human DPP-4 enzyme) | IC50 (human DPP-4 enzyme) | IC50 (α-amylase) | inhibition at 31.25 µM (α-amylase; [1]) | inhibition at 62.5 µM (α-amylase; [2]) | inhibition at 125 µM (α-amylase; [3]) | % α-Glucosidase Inhibition (α-glucosidase; 31.25 µM) | % α-Glucosidase Inhibition (α-glucosidase; 62.5 µM) | % α-Glucosidase Inhibition (α-glucosidase; 125 µM) | % α-Glucosidase Inhibition (α-glucosidase; 500 µM) | further results
C[C@H]1O[C@H](O[C@H]2[C@H](O)[C@@H](O)[C@@H](O[C@H]3[C@H](O)[C@@H](O)C(O)O[C@@H]3CO)O[C@@H]2CO)[C@H](O)[C@@H](O)[C@@H]1N[C@H]1C=C(CO)[C@@H](O)[C@H](O)[C@H]1O (some centres unmarked) [Acarbose, acarbose, reference compound] | – | – | – | – | – | – | – | – | – | – | – | – | – | – | – | – | 71.22 ± 0.47% | 76.44 ± 0.28% | 80.90 ± 1.11% | 94.40 ± 0.03% | inhibition at 31.25 µM (α-amylase; [6]): 70.8%; inhibition at 62.5 µM (α-amylase; [6]): 75.4%; inhibition at 125 µM (α-amylase; [6]): 80.6%; inhibition at 250 µM (α-amylase; [6]): 86.5%; inhibition at 500 µM (α-amylase; [6]): 93.1 ± 1.04%
C[C@H]1[C@H](C)CC[C@]2(C(=O)O)CC[C@]3(C)C(=CC[C@@H]4[C@@]5(C)CC[C@H](O)C(C)(C)[C@@H]5CC[C@]43C)[C@H]12 [Ursolic acid, ursolic acid, reference compound] | – | 71.8% | 76.4% | 81.6% | 87.5% | 94.1 ± 1.04% | – | – | – | – | – | – | – | – | – | – | – | – | – | – | –
